Experimental data reported in patent publication US5211945A, “Compositions and methods for modulating the effect of TNF and IL-1” (priority 1986, dated 1993).
Numbered stars: 1 amine (or outer) side, 2 acyl side, 3 side chain; on linkers, the order of the positions; unused ones are H or OH. Bridge positions count the residues as written; N and C are the ends. Square brackets hold non-standard residues; d marks the D form. Peptide text beside a SMILES is read from it. I, II: the chains in the order shown. Actinocin(9to1) = Cc1c2oc3c(C)ccc(C(=O)[*:1])c3nc-2c(C(=O)[*:2])c(N)c1=O; NMeV = CN[C@H](C(=O)O)C(C)C; Sar = CNCC(=O)O

Columns and labels:
SV-80 cells = assay: Sensitization of SV-80 cells to the cytolytic effect of TNF, neutral red uptake; type: cell-based, human; conditions: for Cell viability upon treatment with TNF (500 U/ml), pretreatment with IL-1 (2 U/ml), OD540 / Cell viability upon treatment with TNF (500 U/ml), pretreatment with IL-1 (2 U/ml), %: 4 h pretreatment with IL-1 2 U/ml; for Cell viability upon treatment with TNF (500 U/ml), pretreatment with IL-1 (2 U/ml), OD540 / Cell viability upon treatment with TNF (500 U/ml), pretreatment with IL-1 (2 U/ml), % / Cell viability upon treatment with TNF (500 U/ml), pretreatment with TNF (20 U/ml), OD540 / Cell viability upon treatment with TNF (500 U/ml), pretreatment with TNF (20 U/ml), %: then TNF 500 U/ml for 12 h with sensitizing agent; for Cell viability upon treatment with TNF (500 U/ml), pretreatment with IL-1 (2 U/ml), % / Cell viability upon treatment with TNF (500 U/ml), pretreatment with TNF (20 U/ml), %: % of sensitizing agent alone; for Cell viability upon treatment with TNF (500 U/ml), pretreatment with TNF (20 U/ml), OD540 / Cell viability upon treatment with TNF (500 U/ml), pretreatment with TNF (20 U/ml), %: 4 h pretreatment with TNF 20 U/ml; for Cell viability in absence of TNF, OD540: 12 h with sensitizing agent alone (cycloheximide 50 μg/ml, emetine 10 μg/ml, actinomycin D 5 μg/ml); for Cell viability upon treatment with TNF (500 U/ml), no pretreatment, OD540: TNF 500 U/ml for 12 h together with sensitizing agent; for Cell viability upon treatment with TNF (500 U/ml), no pretreatment, %: TNF 500 U/ml for 12 h with sensitizing agent, % of viability with sensitizing agent alone
Description: Cytolytic and protective (desensitization) activities of the cytokines were determined in all the figures using SV-80 cells which, for measurement of cytolytic activity, were incubated with serial dilutions of the tested cytokine for 12 hours together with 50 μg/ml CHI; for measuring protective activity, they were incubated for 4 hours with the tested cytokine and then for 12 hours with TNF, at the indicated concentrations, together with 50 μg/ml CHI. The extent of cell killing was quantitated by the neutral-red uptake assay. A unit of cytolytic activity is defined as the concentration of the tested cytokine at which the amount of cells remaining viable was 50% of those that remained viable on incubation with CHI alone. A unit of protective activity is defined as that cytokine concentration protecting 50% of the cells from killing by TNF.
IL-1 or TNF provide protection not only against the cytotoxicity mediated in the presence of CHI, but also against killing of cells in which synthesis of proteins has been suppressed by other agents.
SV-80 cells following 4 h pretreatment with IL1 or TNF or without such
pretreatment were tested for their vulnerability to the cytolytic effect
of TNF applied for 12 h together with the indicated sensitizing agents.
Viability of the cells is presented as neutral red uptake (OD540)
and, in cultures with TNF, percentagewise as compared to the viability in
cultures incubated with the sensitizing agent alone.

[1] = system: receptors for TNF on SV-80 cells; assay: Binding of radiolabelled TNF to SV-80 cells, Scatchard plot analysis; type: cell-based, human; conditions: Scatchard analysis of 125I-TNF binding
Description: (PMA-4-beta-phorbol-12-myristate-13-acetate).
Binding of ^125 I-rTNF (at 3.6 ng/ml), ^125 I-rIL-1 (at 49 ng/ml) and ^125 I-rIFN-gamma (at 13 ng/ml) to the indicated cells was determined at […] as described below. Competition of IL-1 and TNF with each other for binding to their receptors was examined by applying the nonlabelled cytokines, at the indicated concentrations, simultaneously with the labelled proteins to the binding asay. The effect of pretreatment with IL-1 or TNF was examined by applying the proteins on the cells at 37° C. for 4 h prior to application of the labelled cytokines. Human TNF and IFN-gamma were radiolabelled as previously described (30, 44); the first with the chloramine T reagent to specific radioactivity of 42 Ci/g, and the second with the Bolton and Hunter reagent to specific radioactivity of 18 Ci/g. IL-1 was radioiodinated with the chloramine T reagent (31) to specific radioactivity of 40 Ci/g. Recovery of bioactivity following the iodination, as estimated by measuring the protective effect of the protein against the cytotoxicity of TNF (25) was over 95%. […] Specific binding was calculated by subtracting the values of nonspecific binding from the binding observed with the labelled cytokines alone. […]

Balb/c mice = assay: Lethality of TNF and IL-1 in mice sensitized with Act-D or GalN; type: in vivo, mouse; conditions: i.p., sensitizer injected 10 minutes before TNF or IL-1
Description: Nine to thirteen weeks old Balb/c mice were used in all experiments. TNF, IL-1, LPS, actinomycin-D (Act-D) and D-galactosamine (GalN) were solubilized in PBS and injected i.p.; each in aliquots of 0.5 ml. For lethality determination TNF, IL-1 or LPS were administered alone or 10 minutes following injection of Act-D or GalN; for desensitization experiments mice were injected with TNF or IL-1 12 h prior to a challenge consisting of the same regimen as the lethality testing. Following treatments the mice were continuously observed for a period of 72 h in order to determine the time of their death. In all cases, mice that survived 72 h appeared completely normal at that time. […] All experiments were performed in duplicate with qualitatively the same results. Two mice were examined for each experimental point, in each of the experiments. Their actual survival time as well as the average of the survival time of the two mice used for each of the points are presented.
In an attempt to elucidate the nature of the sensitizing effect of Act-D and of GalN, it was tested whether injection of TNF or IL-1 in the absence of these agents affects the response of mice to a subsequent injection of TNF or IL-1 together with Act-D or GalN. […]

SMILES | Cell viability upon treatment with TNF (500 U/ml), pretreatment with IL-1 (2 U/ml), OD540 (SV-80 cells) [OD540] | Cell viability upon treatment with TNF (500 U/ml), pretreatment with IL-1 (2 U/ml), % (SV-80 cells) [%] | Cell viability upon treatment with TNF (500 U/ml), pretreatment with TNF (20 U/ml), OD540 (SV-80 cells) [OD540] | Cell viability upon treatment with TNF (500 U/ml), pretreatment with TNF (20 U/ml), % (SV-80 cells) [%] | Cell viability in absence of TNF, OD540 (SV-80 cells) [OD540] | Cell viability upon treatment with TNF (500 U/ml), no pretreatment, OD540 (SV-80 cells) [OD540] | Cell viability upon treatment with TNF (500 U/ml), no pretreatment, % (SV-80 cells) [%] | Effect on number and affinity of binding sites for TNF [1] | Sensitization of mice to the lethal effect of TNF and IL-1 (Balb/c mice)
C[C@@H]1C[C@@H]([C@H](O)CC2CC(=O)NC(=O)C2)C(=O)[C@@H](C)C1 [cycloheximide] | 0.163 | 72 | 0.195 | 86 | 0.226 | 0.020 | 9 |  | 
CCCCCCCCCCCCCC(=O)OC1C(C)C2(O)C(C=C(CO)CC3(O)C(=O)C(C)=CC32)C2C(C)(C)C12OC(C)=O (stereo not drawn) [PMA, 4-beta-phorbol-12-myristate-13-acetate] |  |  |  |  |  |  |  | affect only the number of binding sites for TNF and not their affinity | 
CC[C@H]1CN2CCc3cc(OC)c(OC)cc3[C@@H]2C[C@@H]1C[C@H]1NCCc2cc(OC)c(OC)cc21 [emetine] | 0.220 | 84 | 0.234 | 89 | 0.262 | 0.029 | 11 |  | 
N[C@H]1C(O)O[C@H](CO)[C@H](O)[C@@H]1O (stereo partly drawn) [GalN, D-galactosamine] |  |  |  |  |  |  |  |  | sensitize mice to the lethal effect of TNF and IL-1
Cc1c2oc3c(C)ccc(C(=O)N[C@@H]4C(=O)N[C@H](C(C)C)C(=O)N5CCC[C@H]5C(=O)N(C)CC(=O)N(C)[C@@H](C(C)C)C(=O)O[C@@H]4C)c3nc-2c(C(=O)N[C@@H]2C(=O)N[C@H](C(C)C)C(=O)N3CCC[C@H]3C(=O)N(C)CC(=O)N(C)[C@@H](C(C)C)C(=O)O[C@@H]2C)c(N)c1=O [actinomycin D] (I: T[dV]P[Sar][NMeV] / II: T[dV]P[Sar][NMeV]; ester I:1-I:C, II:1-II:C; linker I:N-II:N via Actinocin(9to1)) | 0.215 | 88 | 0.236 | 97 | 0.243 | 0.052 | 21 |  | sensitize mice to the lethal effect of TNF and IL-1
